Marks after values point to notes of the source that are not given here.
Tests used:
ovarian tumor SKOV3 = experiment: SKOV3 ovarian tumor progression and cytokines in nude mice; type: in vivo
Description: Human mAb LT3015 reduced ovarian tumor SKOV3 progression and circulating cytokines in biological fluids. Nude mice were engrafted with either 10 mg/kg LT3015, vehicle, or 2 mg/kg paclitaxel (Taxol). After 56 days, mice were sacrificed and the peritoneal cavities were analyzed for tumor burden and ascites fluid accumulation. Tumors were harvested and final tumor weights were determined along with ascites volumes. Data were analyzed by ANOVA and student's t-test analysis. […] Serum and ascites levels of IL-6, IL-8, GM-CSF and VEGF were measured using ELISA kits from R&D systems, Minneapolis Minn.

[1] = tested on: IL-6 release, SKOV3 ovarian cells; experiment: LPA-induced IL-6 release in SKOV3 cells; type: cell-based, human; details: 1 uM LPA alone (stimulus)
Description: (§1) Anti-LPA antibodies inhibit the LPA-dependant release of human CXCL8/IL-8 in conditioned media of SKOV3 ovarian cells. SKOV3 cells (Lot No 4255558, passage 14) were harvested with 2 ml of 1× Trypsin EDTA (Mediatech Inc, Cat. No 25-053-CV) and resuspended in 8 ml of complete medium (10% FBS, Mediatech Inc. Cat. no 35-011-CV). The cells were centrifuged for 5 min ([…]) and re-suspended in 5 ml of complete medium. Cells were counted in duplicate with 0.4% Trypan blue (10 ul cells plus 90 ul Trypan blue, Invitrogen, Cat. No 15250-061) using a hemocytometer. In a 96-well plate, 1×10^5 cells per well were seeded (final volume 100 ul/well). The cells were allowed to attach and form a confluent monolayer by incubating overnight at 37° C. On the following day, cells were gently washed two times with minimum media (1 mg/ml BSA in McCoy's medium with L-glutamine, Mediatech, Cat. No 10-050-CV). […] The CXCL8/IL-8 levels in each supernatant were measured using the Quantikine human CXCL8/IL-8 ELISA kit according to vendor instructions (R&D Systems, Minneapolis Minn., Cat. No D8000C). The IL-6 levels were measured by ELISA using the Quantikine human IL-6 immunoassay kit (R&D systems, Cat. No. D6050). Data were analyzed by one-way ANOVA followed by Bonferroni's post test and expressed as human IL-8 or human IL-6 fold increase.

SKOV3 cells = experiment: Tumor cell migration in the scratch assay; type: cell-based; details: 17 hr
Description: SKOV3 cells were plated at 15,000 cells per well in a 96-well plate. The following day the cells were serum starved in minimal media (McCoy's Media 5a, adjusted to contain L-Glutamine, 2.2 g/L Sodium Bicarbonate, 1% penicillin/streptomycin and 1 mg/ml BSA) for 24 hrs. At time 0 cells were scratched with a p200 pipet tip down the center of each well, washed with minimal media and pictures were taken prior to treatment. Cells were then treated with LPA (C18:1) at 0.2 uM, 1.0 uM and 10 uM concentrations which were pre-incubated at 37° C. with […] in the presence or absence of antibody at 150 ug/ml. Positive control (10% FBS treated cells) and antibody alone added to 1 uM LPA, were also tested. Cells were stimulated for 17 hrs at 37° C. in a 5% CO2 incubator. Pictures were taken again 17 hr post-treatment and % wound closure was measured by adjusting pictures to the same size and measuring the width of the scratch at time 0 and time 17 hr with a ruler. Data were analyzed by Student's t-test.

[2] = tested on: CXCL8/IL-8 release, SKOV3 ovarian cells; experiment: LPA-induced IL-8 release in SKOV3 cells; type: cell-based, human; details: 1 uM LPA alone (stimulus)
Description: as §1

Compound | Tumor Burden (ovarian tumor SKOV3; 56 days, LT3015 10 mg/kg, Taxol 2 mg/kg, mean ± S.E., vehicle 1274 ± 209) [mg] | % Reduction (tumor burden) (ovarian tumor SKOV3; 56 days, LT3015 10 mg/kg, Taxol 2 mg/kg, versus vehicle) [%] | GM-CSF-ascites (ovarian tumor SKOV3; LT3015 10 mg/kg (N = 4), Taxol 2 mg/kg (N = 1), vehicle 1200 ± 248.2) [pg/mL] | IL-8-ascites (ovarian tumor SKOV3; LT3015 10 mg/kg (N = 4), Taxol 2 mg/kg (N = 1), vehicle 2097 ± 132.1) [pg/mL] | VEGF-ascites (ovarian tumor SKOV3; LT3015 10 mg/kg (N = 4), Taxol 2 mg/kg (N = 1), vehicle 3341 ± 202.5) [pg/mL] | Ascites volume (ovarian tumor SKOV3; LT3015 10 mg/kg, Taxol 2 mg/kg, vehicle 3.563 ± 1.144) [mL] | IL-6-serum (ovarian tumor SKOV3; LT3015 10 mg/kg, Taxol 2 mg/kg, vehicle 84.56 ± 16.62) [pg/mL] | GM-CSF-serum (ovarian tumor SKOV3; LT3015 10 mg/kg, Taxol 2 mg/kg, vehicle 320.5 ± 43.18) [pg/mL] | IL-8-serum (ovarian tumor SKOV3; LT3015 10 mg/kg, Taxol 2 mg/kg, vehicle 687.6 ± 114.1) [pg/mL] | Ascites presence (ovarian tumor SKOV3; animals with ascites / animals, LT3015 10 mg/kg, Taxol 2 mg/kg, vehicle 6/11) | Human IL-6 Fold Increase (approx). [1] | Percent wound closure (approx.) (SKOV3 cells; 0.2 uM LPA) [%] | Percent wound closure (approx.) (SKOV3 cells; 1.0 uM LPA) [%] | Percent wound closure (approx.) (SKOV3 cells; 10 uM LPA) [%] | Human IL-8 Fold Increase (approx). [2]
CC(=O)O[C@H]1C(=O)[C@@]2(C)[C@H]([C@H](OC(=O)c3ccccc3)[C@]3(O)C[C@H](OC(=O)[C@H](O)[C@@H](NC(=O)c4ccccc4)c4ccccc4)C(C)=C1C3(C)C)[C@]1(OC(C)=O)CO[C@@H]1C[C@@H]2O [Taxol, paclitaxel] | 381 ± 73 | 70.1 | 2054 ± 0 | 2187 ± 0 | 3344 ± 0 | 0.2 ± 0.0 | 29.19 ± 9.568 | 340.2 ± 62.98 | 234.7 ± 83.04 | 1/7 |  |  |  |  | 
Lysophosphatidic acid [LPA] |  |  |  |  |  |  |  |  |  |  | ~29## fold | ~65 | ~81 | ~89 | ~7.1## fold

Source: patent publication US20120034631A1, “ANTI-LYSOPHOSPHOLIPID ANTIBODY DESIGN USING ANTIBODY STRUCTURES” (priority 2010, published 2012)
